The IC50 is the concentration at which inhibition is half-maximal.

The values below come from US8889704B2 (Array BioPharma Inc., priority 2011, dated 2014).

What all share (assay type): biochemical
The target of test [1] is T1, GST-tagged recombinant full-length human Pim-2 (Homo sapiens, UniProt Q9P1W9).
T1 construct: GST-tagged recombinant full-length human Pim-2; GST
Description: PIM-2 Assay (as Example A). The settings on record: averaged IC50; 4 μM ATP, 1.0 μM PIM2tide, 1.5 nM Pim-2. Here is the method: (§1) The assay for the determination of PIM-1 activity is based on the incorporation of [^33P]PO4 from [γ-^33P]ATP into PIM2tide substrate and capture of the radiolabeled peptide onto a Whatman P81 (phosphocellulose) filter plate. The amount of radiolabeled product is then measured by liquid scintillation counting. The final buffer conditions were as follows: 20 mM K^+MOPS, pH 7.4, 10 mM MgCl2, 0.005% Tween-20, 1 mM DTT. Assay mixtures contained 35 μM [γ-^33P]ATP (20 μCi/mL), 7.5 μM PIM2tide and 0.25 nM PIM-1 in a total volume of 50 μL. Incubations were carried out for 60 min at 22° C. and quenched with 75 μL of 200 mM H3PO4, filtered through a Whatman P81 plate and washed (1×200 μL and 5×100 μL) with 200 mM H3PO4. Fifty μL of liquid scintillation cocktail were then added per well, and the plate was counted for 30 s/well using a TopCount NXT.
(§2) Compounds were prepared at 50× the final concentration in DMSO by conducting 3-fold serial dilutions from a 500-μM intermediate dilution to give a 10-point dosing curve having a high dose of 10 μM. One-μL aliquots of these were then transferred to the assay mixtures above to give a final concentration of DMSO of 2%. A standard or reference compound was typically included on each assay plate to validate that plate. For each plate, percent of control (POC) values were calculated for each well. IC50 values were estimated from the POC values using a standard 4-parameter logistic model. The IC50 is defined as the concentration of inhibitor at which the POC equals 50 for the fitted curve.
Assay was performed as described in Example A, using 4 μM [γ-^33P]ATP (20 μCi/mL), 1.0 μM PIM2tide and 1.5 nM GST-tagged recombinant full-length human Pim-2 in place of PIM-1.

In the next test the target is PIM-1 (Homo sapiens, UniProt P11309). Description: Enzyme PIM-1 Assay ([33P]ATP incorporation into PIM2tide, filter plate). The settings on record: averaged IC50; 35 μM ATP, 7.5 μM PIM2tide, 0.25 nM PIM-1, 60 min at 22° C. Here is the method:
as §1, §2

In another test the target is recombinant rat PIM-3 (Rattus norvegicus, UniProt O70444). Nature of the test: PIM-3 Assay (as Example A). Conditions: averaged IC50; 30 μM ATP, 3.75 μM PIM2tide, 0.5 nM PIM-3. The procedure: as §1, §2
Assay was performed as described in Example A, using 30 μM [γ-^33P]ATP (20 μCi/mL), 3.75 μM PIM2tide and 0.5 nM recombinant rat PIM-3 in place of PIM-1.

Structures can show the parent of a compound that is named as a salt.

Chain of PIM-1 (P11309 whole entry, species assumed): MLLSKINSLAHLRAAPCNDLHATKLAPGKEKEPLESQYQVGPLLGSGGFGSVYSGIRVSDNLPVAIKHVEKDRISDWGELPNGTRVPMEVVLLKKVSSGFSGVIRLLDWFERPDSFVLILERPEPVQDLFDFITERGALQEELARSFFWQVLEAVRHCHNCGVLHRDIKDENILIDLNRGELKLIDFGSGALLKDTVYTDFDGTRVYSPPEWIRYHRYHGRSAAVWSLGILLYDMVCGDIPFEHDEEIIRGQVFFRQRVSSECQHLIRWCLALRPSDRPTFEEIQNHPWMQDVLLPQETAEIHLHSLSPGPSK
T1 sequence (Q9P1W9 whole entry): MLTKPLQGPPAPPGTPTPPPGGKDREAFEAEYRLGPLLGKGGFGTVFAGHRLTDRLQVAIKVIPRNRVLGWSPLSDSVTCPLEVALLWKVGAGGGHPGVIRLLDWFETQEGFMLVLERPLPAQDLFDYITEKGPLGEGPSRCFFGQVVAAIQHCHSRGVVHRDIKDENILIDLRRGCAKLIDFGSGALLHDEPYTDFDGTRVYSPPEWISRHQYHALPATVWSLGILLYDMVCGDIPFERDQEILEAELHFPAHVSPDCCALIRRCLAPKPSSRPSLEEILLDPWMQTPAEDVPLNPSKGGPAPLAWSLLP

`N[C@@H]1CCN(C(c2ccc3nnc(-c4ccc5cccc(OCC6CC6)c5n4)n3c2)C(F)(F)F)C1` (stereo partly drawn) [Example 16, (3R)-1-(1-(3-(8-(cyclopropylmethoxy)quinolin-2-yl)-[1,2,4]triazolo[4,3-a]pyridin-6-yl)-2,2,2-trifluoroethyl)pyrrolidin-3-amine dihydrochloride]: the half-inhibitory concentration (IC50) is 140 nM in test [1], 0.28 nM at PIM-1 and 6 nM at recombinant rat PIM-3.

Consider `CC(c1ccc2nnc(-c3ccc4cccc(C(C)(C)C)c4n3)n2c1)N1CC[C@H](N)C1` (stereo partly drawn) [Example 17, (3S)-1-(1-(3-(8-tert-butylquinolin-2-yl)-[1,2,4]triazolo[4,3-a]pyridin-6-yl)ethyl)pyrrolidin-3-amine trihydrochloride], for which the figures for the IC50 (in test [1]; against PIM-1; on recombinant rat PIM-3) were 12.4 nM, 0.06 nM and 1.2 nM, respectively.

On to `N[C@H]1CCN(C(c2ccc3nnc(-c4ccc5ccc(-c6cccnc6)cc5n4)n3c2)C(F)(F)F)C1` (stereo partly drawn) [Example 18, (3S)-1-(2,2,2-trifluoro-1-(3-(7-(pyridin-3-yl)quinolin-2-yl)-[1,2,4]triazolo[4,3-a]pyridin-6-yl)ethyl)pyrrolidin-3-amine tri-hydrochloride], for which the IC50 in test [1] stood at 172 nM; against PIM-1, 0.25 nM; at recombinant rat PIM-3 it was 0.5 nM.

Regarding `COc1cccc2ccc(-c3nnc4ccc(C(N5C[C@H](O)[C@@H](O)C5)C(F)(F)F)cn34)nc12` (stereo partly drawn) [Example 19, (3S,4S)-1-(2,2,2-trifluoro-1-(3-(8-methoxyquinolin-2-yl)-[1,2,4]triazolo[4,3-a]pyridin-6-yl)ethyl)pyrrolidine-3,4-diol], the IC50 in test [1] was > 1000 nM; on PIM-1, 2.38 nM; at recombinant rat PIM-3, 25 nM.

Regarding `CN[C@H]1CCN(C(c2ccc3nnc(-c4ccc5cccc(OCC6CC6)c5n4)n3c2)C(F)(F)F)C1` (stereo partly drawn) [Example 20, (3S)-1-(1-(3-(8-(Cyclopropylmethoxy)quinolin-2-yl)-[1,2,4]triazolo[4,3-a]pyridin-6-yl)-2,2,2-trifluoroethyl)-N-methylpyrrolidin-3-amine dihydrochloride], the IC50 in test [1] stood at 131 nM; against PIM-1, 0.35 nM; at recombinant rat PIM-3, 3.3 nM.

For the molecule `NC[C@H]1CCN(C(c2ccc3nnc(-c4ccc5cccc(OCC6CC6)c5n4)n3c2)C(F)(F)F)C1` (stereo partly drawn) [Example 21, ((3R)-1-(1-(3-(8-(cyclopropylmethoxy)quinolin-2-yl)-[1,2,4]triazolo[4,3-a]pyridin-6-yl)-2,2,2-trifluoroethyl)pyrrolidin-3-yl)methanamine dihydrochloride], the concentration for half-maximal inhibition (IC50) in test [1] came out at 427 nM; on PIM-1, 1.14 nM; on recombinant rat PIM-3 it was 46 nM.

Turning to `NC[C@@H]1CCN(C(c2ccc3nnc(-c4ccc5cccc(OCC6CC6)c5n4)n3c2)C(F)(F)F)C1` (stereo partly drawn) [Example 24, ((3S)-1-(1-(3-(8-(cyclopropylmethoxy)quinolin-2-yl)-[1,2,4]triazolo[4,3-a]pyridin-6-yl)-2,2,2-trifluoroethyl)pyrrolidin-3-yl)methanamine dihydrochloride], the IC50 is 935 nM in test [1], 2.01 nM at PIM-1 and 76 nM at recombinant rat PIM-3.

Take `FC(F)(F)C(c1ccc2nnc(-c3ccc4cccc(OCC5CC5)c4n3)n2c1)N1C[C@H]2C[C@@H]1CN2` (stereo partly drawn) [Example 25, 2-(6-(1-((1R,4R)-2,5-diazabicyclo[2.2.1]heptan-2-yl)-2,2,2-trifluoroethyl)-[1,2,4]triazolo[4,3-a]pyridin-3-yl)-8-(cyclopropylmethoxy)quinoline dihydrochloride]: the IC50 in test [1] is 86 nM; against PIM-1, 0.8 nM; at recombinant rat PIM-3, 5.1 nM.

On to `N[C@@H]1[C@H]2CN(C(c3ccc4nnc(-c5ccc6cccc(OCC7CC7)c6n5)n4c3)C(F)(F)F)C[C@@H]12` (stereo partly drawn) [Example 26, (1R,5S,6S)-3-(1-(3-(8-(cyclopropylmethoxy)quinolin-2-yl)-[1,2,4]triazolo[4,3-a]pyridin-6-yl)-2,2,2-trifluoroethyl)-3-azabicyclo[3.1.0]hexanesan-6-amine dihydrochloride], for which the 50% inhibitory concentration (IC50) in test [1] was 796 nM; on PIM-1, 2.12 nM; on recombinant rat PIM-3 it was > 100 nM.

As for `CC1(N)CCN(C(c2ccc3nnc(-c4ccc5cccc(OCC6CC6)c5n4)n3c2)C(F)(F)F)C1` (stereo not drawn) [Example 27, 1-(1-(3-(8-(cyclopropylmethoxy)quinolin-2-yl)-[1,2,4]triazolo[4,3-a]pyridin-6-yl)-2,2,2-trifluoroethyl)-3-methylpyrrolidin-3-amine dihydrochloride], the concentration for half-maximal inhibition (IC50) in test [1] came to 334 nM; against PIM-1 it was 0.8 nM; at recombinant rat PIM-3 it was 25 nM.

Consider `CC1(N)CCN(C(c2ccc3nnc(-c4ccc5cccc(O)c5n4)n3c2)C(F)(F)F)C1` (stereo not drawn) [Example 28, 2-(6-(1-(3-amino-3-methylpyrrolidin-1-yl)-2,2,2-trifluoroethyl)-[1,2,4]triazolo[4,3-a]pyridin-3-yl)quinolin-8-ol dihydrochloride], for which the IC50 in test [1] was > 1000 nM; on PIM-1 it was 1.08 nM; on recombinant rat PIM-3, 8.2 nM.

For `N[C@H]1CCN(C(c2ccc3nnc(-c4ccc5ccc(C(F)(F)F)cc5n4)n3c2)C(F)(F)F)C1` (stereo partly drawn) [Example 29, (3S)-1-(2,2,2-trifluoro-1-(3-(7-(trifluoromethyl)quinolin-2-yl)-[1,2,4]triazolo[4,3-a]pyridin-6-yl)ethyl)pyrrolidin-3-amine dihydrochloride], the values for the IC50 (in test [1]; against PIM-1; at recombinant rat PIM-3) were > 1000 nM, 5.12 nM and 47 nM, respectively.

On to `CC(C)NC(=O)c1ccc2ccc(-c3nnc4ccc(C(N5CC[C@H](N)C5)C(F)(F)F)cn34)nc2c1` (stereo partly drawn) [Example 30, 2-(6-(1-((S)-3-aminopyrrolidin-1-yl)-2,2,2-trifluoroethyl)-[1,2,4]triazolo[4,3-a]pyridin-3-yl)-N-isopropylquinoline-7-carboxamide dihydrochloride], for which the half-inhibitory concentration (IC50) in test [1] was 63 nM; at PIM-1, 0.32 nM; at recombinant rat PIM-3, 0.9 nM.

For the molecule `CC(C)Oc1cccc2ccc(-c3nnc4ccc([C@@H](N5CC[C@H](N)C5)C(F)(F)F)cn34)nc12` [Example 31, (S)-1-((R)-2,2,2-trifluoro-1-(3-(8-isopropoxyquinolin-2-yl)-[1,2,4]triazolo[4,3-a]pyridin-6-yl)ethyl)pyrrolidin-3-amine dihydrochloride], the IC50 in test [1] worked out at 23 nM; against PIM-1 it was 0.08 nM; on recombinant rat PIM-3, 0.4 nM.

Turning to `CC(C)N[C@H]1CCN(C(c2ccc3nnc(-c4ccc5cccc(OCC6CC6)c5n4)n3c2)C(F)(F)F)C1` (stereo partly drawn) [Example 32, (3S)-1-(1-(3-(8-(cyclopropylmethoxy)quinolin-2-yl)-[1,2,4]triazolo[4,3-a]pyridin-6-yl)-2,2,2-trifluoroethyl)-N-isopropylpyrrolidin-3-amine dihydrochloride], the values for the IC50 (in test [1]; against PIM-1; at recombinant rat PIM-3) were 266 nM, 0.53 nM and 10 nM, respectively.

For `COC[C@@H](C)Oc1cccc2ccc(-c3nnc4ccc(C(C)N5CC[C@H](N)C5)cn34)nc12` (stereo partly drawn) [Example 33, (3S)-1-(1-(3-(8-((R)-1-methoxypropan-2-yloxy)quinolin-2-yl)-[1,2,4]triazolo[4,3-a]pyridin-6-yl)ethyl)pyrrolidin-3-amine trihydrochloride], the IC50 is 759 nM in test [1], 1.41 nM against PIM-1 and 5.9 nM at recombinant rat PIM-3.

Regarding `CC(C)NC(=O)c1ccc2ccc(-c3nnc4ccc([C@@H](N5CC[C@H](N)C5)C(F)(F)F)cn34)nc2c1` [Example 34, 2-(6-((R)-1-((S)-3-aminopyrrolidin-1-yl)-2,2,2-trifluoroethyl)-[1,2,4]triazolo[4,3-a]pyridin-3-yl)-N-isopropylquinoline-7-carboxamide dihydrochloride], the results for the IC50 (in test [1]; against PIM-1; on recombinant rat PIM-3) were 41 nM, 0.2 nM and 0.3 nM, respectively.

For the molecule `CN(C)C(=O)c1ccc2ccc(-c3nnc4ccc([C@@H](N5CC[C@H](N)C5)C(F)(F)F)cn34)nc2c1` [Example 35, 2-(6-((R)-1-((S)-3-aminopyrrolidin-1-yl)-2,2,2-trifluoroethyl)-[1,2,4]triazolo[4,3-a]pyridin-3-yl)-N,N-dimethylquinoline-7-carboxamide dihydrochloride], the half-maximal inhibitory concentration (IC50) in test [1] is > 1000 nM; at PIM-1, 4.52 nM; on recombinant rat PIM-3, 39 nM.
